Experiment [1] addresses T1, Adrenergic β2 (H292 cells) (Homo sapiens, UniProt P07550).
T1 construct: endogenous in cells; host or cells: H292 cells
The experiment in a line: Adrenergic β2 Mediated cAMP Production, single concentration 1 μM. The experiment is classed as cell-based. As to conditions: percentage of the maximum response generated by 1E-07M formoterol; for activation at 1 µM: NCI-H292, 1 μM compound, read-out: β2 (% effect at 1 μM); for β2 (% effect at 1 μM): 1 μM compound. In a few lines: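 cAMP was quantified by AlphaScreen in lysates of H292 cells and reported as a percentage of the 1E-07M formoterol maximum. Before lysis the cells, seeded the previous day, received rolipram (300 μM final) and then test compound at a final 1 μM in 1% DMSO for 60 min at room temperature.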

Experiment [2] addresses T2, human muscarinic acetylcholine M3 receptor (M3-ACh) (Homo sapiens, UniProt P20309).
T2 construct: expressed in transfected cells; host or cells: CHO-K1 (Chinese Hamster Ovary) cell membranes
The experiment in a line: Muscarinic 3 Receptor Binding Assay, % inhibition specific binding at 1 μM. The note with it: 1 μM compound, % inhibition specific [3H]-NMS binding. In a few lines:
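Value is % inhibition of specific [3H]N-methyl scopolamine binding (0.1 nM, quarter Kd) by 1 μM compound, using SPA beads precoated with human M3-expressing CHO-K1 membranes. Buffer HEPES pH 7.4 with MgCl2 and 1% DMSO; 16 h at room temperature; 1 μM atropine sets non-specific binding.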

T2 sequence (P20309 whole entry): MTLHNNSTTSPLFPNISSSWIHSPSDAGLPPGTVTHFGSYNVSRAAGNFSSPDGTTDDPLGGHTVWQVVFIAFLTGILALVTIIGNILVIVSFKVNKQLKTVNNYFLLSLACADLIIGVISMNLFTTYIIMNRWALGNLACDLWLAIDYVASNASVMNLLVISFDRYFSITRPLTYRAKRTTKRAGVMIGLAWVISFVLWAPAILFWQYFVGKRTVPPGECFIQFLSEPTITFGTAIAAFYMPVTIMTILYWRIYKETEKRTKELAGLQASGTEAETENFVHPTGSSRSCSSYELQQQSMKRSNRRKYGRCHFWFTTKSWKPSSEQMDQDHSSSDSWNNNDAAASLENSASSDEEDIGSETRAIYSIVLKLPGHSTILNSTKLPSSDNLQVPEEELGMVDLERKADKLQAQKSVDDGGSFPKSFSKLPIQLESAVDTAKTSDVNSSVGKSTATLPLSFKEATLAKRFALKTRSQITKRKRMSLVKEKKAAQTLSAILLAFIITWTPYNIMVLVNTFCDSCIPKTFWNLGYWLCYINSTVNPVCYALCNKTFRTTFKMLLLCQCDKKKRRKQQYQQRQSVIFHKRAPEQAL
T1 sequence (P07550 whole entry): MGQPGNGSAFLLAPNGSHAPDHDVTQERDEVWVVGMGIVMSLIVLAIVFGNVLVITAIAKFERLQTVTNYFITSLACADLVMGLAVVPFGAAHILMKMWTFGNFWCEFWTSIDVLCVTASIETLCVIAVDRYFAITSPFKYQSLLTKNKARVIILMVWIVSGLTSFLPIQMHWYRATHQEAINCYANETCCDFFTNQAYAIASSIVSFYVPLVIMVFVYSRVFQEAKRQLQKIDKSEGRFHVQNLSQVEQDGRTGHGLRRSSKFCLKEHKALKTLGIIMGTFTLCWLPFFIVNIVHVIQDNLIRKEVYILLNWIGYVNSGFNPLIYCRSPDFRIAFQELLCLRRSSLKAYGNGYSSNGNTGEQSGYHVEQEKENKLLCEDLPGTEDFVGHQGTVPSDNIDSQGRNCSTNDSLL

On to `Cc1nc2cc(C(=O)N3CCOC4(CCN(Cc5cc(F)cc(CCNC[C@H](O)c6ccc(O)c7[nH]c(=O)sc67)c5)CC4)C3)ccc2n1C` [Example 162, (R)-7-(2-(3-((4-(1,2-dimethyl-1H-benzo[d]imidazole-5-carbonyl)-1-oxa-4,9-diazaspiro[5.5]undecan-9-yl)methyl)-5-fluorophenethylamino)-1-hydroxyethyl)-4-hydroxybenzo[d]thiazol-2(3H)-one], for which, in experiment [1], the activation at 1 µM worked out at 91%. For the same molecule, 1 µM produced 8% inhibition in experiment [2].

As for `Cc1nonc1CC(=O)N1CCOC2(CCN(Cc3cc(F)cc(CCNC[C@H](O)c4ccc(O)c5[nH]c(=O)sc45)c3)CC2)C1` [Example 163, (R)-7-(2-(3-fluoro-5-((4-(2-(4-methyl-1,2,5-oxadiazol-3-yl)acetyl)-1-oxa-4,9-diazaspiro[5.5]undecan-9-yl)methyl)phenethylamino)-1-hydroxyethyl)-4-hydroxybenzo[d]thiazol-2(3H)-one], in experiment [1], the activation at 1 µM stood at 95%. At 1 µM the inhibition in experiment [2] was 25%.

Consider `O=C(CCn1cncn1)N1CCOC2(CCN(Cc3cc(F)cc(CCNC[C@H](O)c4ccc(O)c5[nH]c(=O)sc45)c3)CC2)C1` [Example 164, (R)-7-(2-(3-((4-(3-(1H-1,2,4-triazol-1-yl)propanoyl)-1-oxa-4,9-diazaspiro[5.5]undecan-9-yl)methyl)-5-fluorophenethylamino)-1-hydroxyethyl)-4-hydroxybenzo[d]thiazol-2(3H)-one], for which the activation at 1 µM in experiment [1] was determined as 99%. The same molecule gave an inhibition at 1 µM in experiment [2] of 35%.

As for `O=C(c1cccc2[nH]ccc12)N1CCOC2(CCN(Cc3cc(F)cc(CCNC[C@H](O)c4ccc(O)c5[nH]c(=O)sc45)c3)CC2)C1` [Example 165, (R)-7-(2-(3-((4-(1H-indole-4-carbonyl)-1-oxa-4,9-diazaspiro[5.5]undecan-9-yl)methyl)-5-fluorophenethylamino)-1-hydroxyethyl)-4-hydroxybenzo[d]thiazol-2(3H)-one], in experiment [1], the activation at 1 µM stood at 89%. In addition, at 1 µM the inhibition in experiment [2] was 11%.

Take `Cc1nc(CC(=O)N2CCOC3(CCN(Cc4cc(F)cc(CCNC[C@H](O)c5ccc(O)c6[nH]c(=O)sc56)c4)CC3)C2)cs1` [Example 166, (R)-7-(2-(3-fluoro-5-((4-(2-(2-methylthiazol-4-yl)acetyl)-1-oxa-4,9-diazaspiro[5.5]undecan-9-yl)methyl)phenethylamino)-1-hydroxyethyl)-4-hydroxybenzo[d]thiazol-2(3H)-one]: the activation at 1 µM in experiment [1] came to 95%. Moreover, testing at 1 µM in experiment [2] gave an inhibition of 69%.

Turning to `Cc1noc(C)c1CC(=O)N1CCOC2(CCN(Cc3cc(F)cc(CCNC[C@H](O)c4ccc(O)c5[nH]c(=O)sc45)c3)CC2)C1` [Example 167, (R)-7-(2-(3-((4-(2-(3,5-dimethylisoxazol-4-yl)acetyl)-1-oxa-4,9-diazaspiro[5.5]undecan-9-yl)methyl)-5-fluorophenethylamino)-1-hydroxyethyl)-4-hydroxybenzo[d]thiazol-2(3H)-one], in experiment [1], the activation at 1 µM came out at 100%. 1 µM produced 8% inhibition in experiment [2].

On to `O=C(Cn1ccc2cccc(Cl)c21)N1CCOC2(CCN(Cc3cc(F)cc(CCNC[C@H](O)c4ccc(O)c5[nH]c(=O)sc45)c3)CC2)C1` [Example 168, (R)-7-(2-(3-((4-(2-(7-chloro-1H-indol-1-yl)acetyl)-1-oxa-4,9-diazaspiro[5.5]undecan-9-yl)methyl)-5-fluorophenethylamino)-1-hydroxyethyl)-4-hydroxybenzo[d]thiazol-2(3H)-one], for which the activation at 1 µM in experiment [1] was 95%. In experiment [2], this molecule came in with an inhibition at 1 µM of 29%.

With `O=C(c1ccc(-c2ccccc2)cc1)N1CCOC2(CCN(Cc3cc(F)cc(CCNC[C@H](O)c4ccc(O)c5[nH]c(=O)sc45)c3)CC2)C1` [Example 169, (R)-7-(2-(3-((4-(biphenylcarbonyl)-1-oxa-4,9-diazaspiro[5.5]undecan-9-yl)methyl)-5-fluorophenethylamino)-1-hydroxyethyl)-4-hydroxybenzo[d]thiazol-2(3H)-one], the “β2 (% effect at 1 μM)” value in experiment [1] is listed as 92%. Besides, the “M3 (% inhibition at 1 μM)” value in experiment [2] (1 µM) is recorded as −2%.

As for `Cc1nn(-c2ccccc2)nc1C(=O)N1CCOC2(CCN(Cc3cc(F)cc(CCNC[C@H](O)c4ccc(O)c5[nH]c(=O)sc45)c3)CC2)C1` [Example 170, (R)-7-(2-(3-fluoro-5-((4-(5-methyl-2-phenyl-2H-1,2,3-triazole-4-carbonyl)-1-oxa-4,9-diazaspiro[5.5]undecan-9-yl)methyl)phenethylamino)-1-hydroxyethyl)-4-hydroxybenzo[d]thiazol-2(3H)-one], the activation at 1 µM in experiment [1] is 102%. Moreover, 1 µM produced 42% inhibition in experiment [2].

Regarding `O=C(c1ccc(-c2ccccc2)cc1)N1CCOC2(CCN(Cc3cc(F)cc(CCNC[C@H](O)c4ccc(O)c5[nH]c(=O)sc45)c3)CC2)C1` [Example 171, (R)-7-(2-(3-((4-(biphenylcarbonyl)-1-oxa-4,9-diazaspiro[5.5]undecan-9-yl)methyl)-5-fluorophenethylamino)-1-hydroxyethyl)-4-hydroxybenzo[d]thiazol-2(3H)-one], the “β2 (% effect at 1 μM)” value in experiment [1] worked out at 86%. Also, the “M3 (% inhibition at 1 μM)” value in experiment [2] (1 µM) came out at 11%.

With `O=C(c1cnc2ccccc2c1)N1CCOC2(CCN(Cc3cc(F)cc(CCNC[C@H](O)c4ccc(O)c5[nH]c(=O)sc45)c3)CC2)C1` [Example 172, (R)-7-(2-(3-fluoro-5-((4-(quinoline-3-carbonyl)-1-oxa-4,9-diazaspiro[5.5]undecan-9-yl)methyl)phenethylamino)-1-hydroxyethyl)-4-hydroxybenzo[d]thiazol-2(3H)-one], in experiment [1], the activation at 1 µM worked out at 98%. In experiment [2], this molecule displayed an inhibition at 1 µM of 19%.

On to `O=C(COCCc1ccccc1)N1CCOC2(CCN(Cc3cc(F)cc(CCNC[C@H](O)c4ccc(O)c5[nH]c(=O)sc45)c3)CC2)C1` [Example 174, (R)-7-(2-(3-fluoro-5-((4-(2-phenethoxyacetyl)-1-oxa-4,9-diazaspiro[5.5]undecan-9-yl)methyl)phenethylamino)-1-hydroxyethyl)-4-hydroxybenzo[d]thiazol-2(3H)-one], for which the activation at 1 µM in experiment [1] was 89%. Testing at 1 µM in experiment [2] gave an inhibition of 41%.

In the case of `O=C(c1cnc(-c2ccccc2)[nH]1)N1CCOC2(CCN(Cc3cc(F)cc(CCNC[C@H](O)c4ccc(O)c5[nH]c(=O)sc45)c3)CC2)C1` [Example 175, (R)-7-(2-(3-fluoro-5-((4-(2-phenyl-1H-imidazole-5-carbonyl)-1-oxa-4,9-diazaspiro[5.5]undecan-9-yl)methyl)phenethylamino)-1-hydroxyethyl)-4-hydroxybenzo[d]thiazol-2(3H)-one], the activation at 1 µM in experiment [1] is 94%. Also, the inhibition at 1 µM in experiment [2] was determined as 3%.

Turning to `CC(C)(C(=O)N1CCOC2(CCN(Cc3cc(F)cc(CCNC[C@H](O)c4ccc(O)c5[nH]c(=O)sc45)c3)CC2)C1)c1ccccc1` [Example 176, (R)-7-(2-(3-fluoro-5-((4-(2-methyl-2-phenylpropanoyl)-1-oxa-4,9-diazaspiro[5.5]undecan-9-yl)methyl)phenethylamino)-1-hydroxyethyl)-4-hydroxybenzo[d]thiazol-2(3H)-one], the activation at 1 µM in experiment [1] is 87%. For the same molecule, 1 µM produced 16% inhibition in experiment [2].

On to `O=C(Cn1c(C(F)(F)F)nc2ccccc21)N1CCOC2(CCN(Cc3cc(F)cc(CCNC[C@H](O)c4ccc(O)c5[nH]c(=O)sc45)c3)CC2)C1` [Example 177, (R)-7-(2-(3-fluoro-5-((4-(2-(2-(trifluoromethyl)-1H-benzo[d]imidazol-1-yl)acetyl)-1-oxa-4,9-diazaspiro[5.5]undecan-9-yl)methyl)phenethylamino)-1-hydroxyethyl)-4-hydroxybenzo[d]thiazol-2(3H)-one], for which the activation at 1 µM in experiment [1] is 78%. The same molecule had an inhibition at 1 µM in experiment [2] of 1%.

As for `CC(C)c1cc(C(=O)N2CCOC3(CCN(Cc4cc(F)cc(CCNC[C@H](O)c5ccc(O)c6[nH]c(=O)sc56)c4)CC3)C2)no1` [Example 179, (R)-7-(2-(3-fluoro-5-((4-(5-isopropylisoxazole-3-carbonyl)-1-oxa-4,9-diazaspiro[5.5]undecan-9-yl)methyl)phenethylamino)-1-hydroxyethyl)-4-hydroxybenzo[d]thiazol-2(3H)-one], the activation at 1 µM in experiment [1] amounted to 95%. In addition, in experiment [2], the inhibition at 1 µM worked out at 66%.

`Cc1cc(C(=O)N2CCOC3(CCN(Cc4cc(F)cc(CCNC[C@H](O)c5ccc(O)c6[nH]c(=O)sc56)c4)CC3)C2)oc1C` [Example 180, (R)-7-(2-(3-((4-(4,5-dimethylfuran-2-carbonyl)-1-oxa-4,9-diazaspiro[5.5]undecan-9-yl)methyl)-5-fluorophenethylamino)-1-hydroxyethyl)-4-hydroxybenzo[d]thiazol-2(3H)-one]: the activation at 1 µM in experiment [1] amounted to 92%. Besides, at 1 µM the inhibition in experiment [2] was 51%.

Turning to `O=C(COc1ccc(O)cc1)N1CCOC2(CCN(Cc3cc(F)cc(CCNC[C@H](O)c4ccc(O)c5[nH]c(=O)sc45)c3)CC2)C1` [Example 181, (R)-7-(2-(3-fluoro-5-((4-(2-(4-hydroxyphenoxy)acetyl)-1-oxa-4,9-diazaspiro[5.5]undecan-9-yl)methyl)phenethylamino)-1-hydroxyethyl)-4-hydroxybenzol[d]thiazol-2(3H)-one], the “β2 (% effect at 1 μM)” value in experiment [1] is given as 86%. Further, the “M3 (% inhibition at 1 μM)” value in experiment [2] came out at 10%.

For orientation: inhibition means the share of the control response that was lost under treatment. A high value points to strong suppression.

These data come from patent US8148373B2, “Compounds” (AstraZeneca AB, priority 2008, dated 2012).
